Where two headings read alike, the source gives them in different places.
Biological target: Tau-FynSH3 interaction (Homo sapiens (Human), UniProt P10636)
Assay: Tau-FynSH3 AlphaScreen
Type: binding
Source text: Human Fyn-SH3 domain with GST-tag at the N-terminus and a Strep-tag II ([…]) at the C-terminus (GST-Fyn-SH3-Strep) was cloned into pPR-IBA1 vector (IBA Lifesciences) (Cochran, et al. (2014) J. Biomol. Screen. 19, 1338-1349). Codon-optimized human 4R2N Tau for E. coli expression with a Strep-tag II at the C-terminus (His-Tau-Strep) was cloned into pET-28a(+) vector (Novagen). The constructs were transformed into E. coli BL-21(DE3) competent cells (Novagen). For GST-Fyn-SH3-Strep purification, a single colony was inoculated in Luria-Bertani (LB) broth at 37° C. overnight. 10 mL cell culture was added into 500 mL LB medium and cultured at 37° C. 0.5 mM Isopropyl β-D-1-thiogalactopyranoside (IPTG) was added into the culture when OD600 reached 0.7. Cells were further cultured at 25° C. for 4 hours and harvested. Cell pellet was resuspended in lysis buffer (20 mM Tris pH 7.9, 300 mM NaCl, 1 mM TCEP) with 1 tablet of EDTA-free protease inhibitors (ThermoFisher) and 1 mg/ml lysozyme. Cells were disrupted by sonication and debris was removed by centrifugation at 9500 rpm for 1 hour. Supernatant was loaded onto a glutathione-sepharose column (Cytiva). The column was washed in lysis buffer and protein eluted in lysis buffer containing 25 mM reduced glutathione. For His-Tau-Strep protein purification, cells were inoculated in LB broth medium and cultured at 37° C. overnight. A 10 mL overnight culture was added to 500 mL of auto-induction medium (Studier, F. W. (2005) Protein Expr Purif 41, 207-34) and cells were cultured at 37° C. for about 5 hours. The temperature was lowered to 18° C., and cells were cultured overnight. Cells were harvested and resuspended in lysis buffer with 20 mM imidazole, protease inhibitors, and lysozyme. Cells were disrupted by sonication and cell pellets were spun down at 9500 rpm for 1 hour. Supernatant was loaded onto Ni-NTA column (Cytiva) and the column was washed in lysis buffer with 20 mM imidazole. His-Tau-Strep protein was eluted in lysis buffer containing 400 mM imidazole. Both eluted GST-Fyn-SH3-Strep and His-Tau-Strep protein solutions were passed through G-25 desalting column (Cytiva) with lysis buffer and loaded onto high capacity Strep-Tactin column (IBA Lifesciences). The columns were washed in Buffer W (IBA Life sciences) and proteins were eluted in Buffer E (IBA life sciences). The eluted proteins were passed through G-25 desalting column again. Both GST-Fyn-Strep and His-Tau-Strep proteins were concentrated and diluted 1:1 in ethylene glycol as a cryoprotectant for storage at −80° C.
AlphaScreen was conducted with 10 µg/mL of glutathione donor beads (PerkinElmer, Waltham, MA) and nickel chelate acceptor beads (PerkinElmer) in 10 mM Bis-Tris (pH 7.0), 1 mM TCEP, 0.02% casein, and 0.1% Tween-20. Compounds were plated first followed by addition of one the proteins at 600 nM and incubation for 30 min. The second protein was added and incubated for 30 mn, then the beads were added simultaneously and the final mixture was incubated for 2 hours. Experiments were conducted in 384-well plates (6007290; PerkinElmer) and results were read on a PHERAstar plate reader (BMG Labtech, Cary, NC).
˜50,000 compounds from the Enamine and Southern Research libraries were screened to identify Tau-FynSH3 interaction inhibitors using an AlphaScreen assay (Cochran, et al. (2014) J. Biomol. Screen. 19, 1338-1349). Compounds that were >3 standard deviations above mean inhibition were selected, yielding 1,852 hits (FIG. 1A). […]. These 39 compounds were tested in a live-cell BRET assay to measure Tau-Fyn interaction in cells. […]. Screen. 19, 1338-1349).

[1] = Table 3, read-out: Alpha screen IC50
[2] = Table 2, Tau-FynSH3 inhibitory activity in the AlphaScreen, read-out: IC50

Sequence of Tau-FynSH3 interaction (P10636 other isoform, or with tags, fused parts or gaps): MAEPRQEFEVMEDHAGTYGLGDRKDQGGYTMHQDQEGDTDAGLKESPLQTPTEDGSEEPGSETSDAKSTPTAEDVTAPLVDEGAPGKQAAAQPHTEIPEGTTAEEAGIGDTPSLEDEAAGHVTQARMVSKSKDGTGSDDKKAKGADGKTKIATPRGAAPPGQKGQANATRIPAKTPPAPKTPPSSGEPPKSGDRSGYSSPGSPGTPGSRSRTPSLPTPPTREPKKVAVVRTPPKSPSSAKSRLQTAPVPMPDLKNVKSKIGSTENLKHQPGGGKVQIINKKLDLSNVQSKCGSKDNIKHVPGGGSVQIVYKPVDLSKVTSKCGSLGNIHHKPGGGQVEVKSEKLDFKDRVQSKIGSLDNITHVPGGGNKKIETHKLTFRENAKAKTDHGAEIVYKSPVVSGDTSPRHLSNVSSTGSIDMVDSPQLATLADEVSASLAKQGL

SMILES | IC50 [1] [nM] | Alpha screen IC50 (μM) (Table 3) | also measured
O=C(CN1C(=O)COc2cc(F)ccc21)Nc1nnc(-c2ccccn2)[nH]1 [compound 46, 2-(7-FLUORO-3-OXO-2,3-DIHYDRO-4H-BENZO[B][1,4]OXAZIN-4-YL)-N-(5-(PYRIDIN-2-YL)-4H-1,2,4-TRIAZOL-3-YL)ACETAMIDE] | 2960 | – | –
O=C(CN1C(=O)CSc2ccccc21)Nc1nnc(-c2ccccn2)[nH]1 [compound no. 56] | – | – | improvement in activity in the Tau-FynSH3 AlphaScreen (compared to compound no. 55): five-fold improvement in activity; IC50 (read-out: IC50 in the Tau-FynSH3 AlphaScreen): 840 nM
O=C(CCN1C(=O)CSc2ccccc21)Nc1ccccc1C(F)(F)F [compound 36, 3-(3-OXO-2,3-DIHYDRO-4H-BENZO[B][1,4]THIAZIN-4-YL)-N-(2-(TRIFLUOROMETHYL)PHENYL) PROPANAMIDE] | – | Inactive | –
O=C1CCc2ccccc2N1Cc1nnc(-c2ccccn2)[nH]1 [compound 29, 1-((5-(PYRIDIN-2-YL)-4H-1,2,4-TRIAZOL-3-YL)METHYL)-3,4-DIHYDROQUINOLIN-2(1H)-ONE] | – | Inactive | –
Cc1ccc2c(c1)OCC(=O)N2CC(=O)Nc1nnc(-c2ccccn2)[nH]1 [compound 53, 2-(7-METHYL-3-OXO-2,3-DIHYDRO-4H-BENZO[B][1,4]OXAZIN-4-YL)-N-(5-(PYRIDIN-2-YL)-4H-1,2,4-TRIAZOL-3-YL)ACETAMIDE] | 1600 | – | –
O=c1sc2ccccc2n1Cc1nnc(-c2ccccn2)[nH]1 [compound 30, 3-((5-(PYRIDIN-2-YL)-4H-1,2,4-TRIAZOL-3-YL)METHYL)BENZO[D]THIAZOL-2(3H)-ONE] | 10600 | – | –
Cc1ccc2c(c1)CCC(=O)N2CC(=O)Nc1nnc(-c2ccccn2)[nH]1 [compound 54, 2-(6-METHYL-2-OXO-3,4-DIHYDROQUINOLIN-1(2H)-YL)-N-(5-(PYRIDIN-2-YL)-4H-1,2,4-TRIAZOL-3-YL)ACETAMIDE] | 1400 | – | –
O=C(CN1CCSc2ccccc21)Nc1ncc(-c2ccccn2)o1 [compound 68] | – | – | AlphaScreen activity (in words): lost activity; IC50 [2]: > 100000 nM
O=C1COc2ccccc2N1Cc1nnc(-c2ccccn2)[nH]1 [compound 28, 4-((5-(PYRIDIN-2-YL)-4H-1,2,4-TRIAZOL-3-YL)METHYL)-2H-BENZO[B][1,4]OXAZIN-3(4H)-ONE] | – | Inactive | –
O=C(CN1C(=O)CSc2ccccc21)Nc1nnc(-c2cccnc2)[nH]1 [compound 24, 2-(3-OXO-2,3-DIHYDRO-4H-BENZO[B][1,4]THIAZIN-4-YL)-N-(5-(PYRIDIN-3-YL)-4H-1,2,4-TRIAZOL-3-YL)ACETAMIDE] | – | Inactive | –
O=C(CCN1C(=O)CSc2ccccc21)Nc1ccc(-c2cncnc2)cc1 [compound 42, 3-(3-OXO-2,3-DIHYDRO-4H-BENZO[B][1,4]THIAZIN-4-YL)-N-(4-(PYRIMIDIN-5-YL)PHENYL) PROPANAMIDE] | – | Inactive | –
COc1ccc2c(c1)N(CC(=O)Nc1nnc(-c3ccccn3)[nH]1)C(=O)CO2 [compound 49, 2-(6-METHOXY-3-OXO-2,3-DIHYDRO-4H-BENZO[B][1,4]OXAZIN-4-YL)-N-(5-(PYRIDIN-2-YL)-4H-1,2,4-TRIAZOL-3-YL)ACETAMIDE] | 1600 | – | –
O=C(CN1C(=O)CSc2ccccc21)Nc1nnc(-c2ccncc2)[nH]1 [compound 25, 2-(3-Oxo-2,3-DIHYDRO-4H-BENZO[B][1,4]THIAZIN-4-YL)-N-(5-(PYRIDIN-4-YL)-4H-1,2,4-TRIAZOL-3-YL)ACETAMIDE] | – | Inactive | –
O=C(CN1C(=O)CSc2ccccc21)Nc1cccc(C(=O)N2CCOCC2)c1 [compound 44, N-(3-(MORPHOLINE-4-CARBONYL)PHENYL)-2-(3-OXO-2,3-DIHYDRO-4H-BENZO[B][1,4]THIAZIN-4-YL)ACETAMIDE] | – | Inactive | –
COc1ccc2c(c1)N(CC(=O)Nc1nnc(-c3ccccn3)[nH]1)C(=O)CC2 [compound 50, 2-(7-METHOXY-2-OXO-3,4-DIHYDROQUINOLIN-1(2H)-YL)-N-(5-(PYRIDIN-2-YL)-4H-1,2,4-TRIAZOL-3-YL)ACETAMIDE] | 1600 | – | –
O=C(CCN1C(=O)CSc2ccc(Cl)cc21)Nc1nnc(-c2ccccn2)[nH]1 [compound 10, 3-(6-CHLORO-3-OXO-2H-BENZO[B][1,4]THIAZIN-4(3H)-YL)-N-(5-(PYRIDIN-2-YL)-4H-1,2,4-TRIAZOL-3-YL)PROPANAMIDE] | 6780 | – | –
O=C(CCN1C(=O)CSc2ccccc21)Nc1nnn[nH]1 [compound 40, 3-(3-OXO-2,3-DIHYDRO-4H-BENZO[B][1,4]THIAZIN-4-YL)-N-(1H-TETRAZOL-5-YL)PROPANAMIDE] | – | Inactive | –
O=C(CCN1C(=O)CSc2ccccc21)Nc1ncc(-c2ccccn2)[nH]1 [compound no. 5, 3-(3-Oxo-2H-BENZO[B][1,4]THIAZIN-4(3H)-YL)-N-(5-(PYRIDIN-2-YL)-1H-IMIDAZOL-2-YL)PROPANAMIDE] | 3240 | – | –
O=C(CN1C(=O)COc2cc(Cl)ccc21)Nc1nnc(-c2ccccn2)[nH]1 [compound 52, 2-(7-CHLORO-3-OXO-2,3-DIHYDRO-4H-BENZO[B][1,4]OXAZIN-4-YL)-N-(5-(PYRIDIN-2-YL)-4H-1,2,4-TRIAZOL-3-YL)ACETAMIDE] | 1600 | – | –
O=C(CN1C(=O)CSc2cc(C(F)(F)F)ccc21)Nc1nnc(-c2ccccn2)[nH]1 [compound 17, 2-(3-OXO-7-(TRIFLUOROMETHYL)-2H-BENZO[B][1,4]THIAZIN-4(3H)-YL)-N-(5-(PYRIDIN-2-YL)-4H-1,2,4-TRIAZOL-3-YL)ACETAMIDE] | 5420 | – | –
O=C(CN1C(=O)CCc2cc(Cl)ccc21)Nc1nnc(-c2ccccn2)[nH]1 [compound 48, 2-(6-CHLORO-2-OXO-3,4-DIHYDROQUINOLIN-1(2H)-YL)-N-(5-(PYRIDIN-2-YL)-4H-1,2,4-TRIAZOL-3-YL)ACETAMIDE] | 1200 | – | –
O=C(CCN1C(=O)CSc2cc(C(F)(F)F)ccc21)Nc1nnc(-c2ccccn2)[nH]1 [compound 11, 3-(3-Oxo-7-(TRIFLUOROMETHYL)-2H-BENZO[B][1,4]THIAZIN-4(3H)-YL)-N-(5-(PYRIDIN-2-YL)-4H-1,2,4-TRIAZOL-3-YL)PROPANAMIDE] | 3450 | – | –
O=C(CCN1C(=O)CSc2ccccc21)Nc1ccc(-c2ncc[nH]2)cc1 [compound 41, N-(4-(1H-IMIDAZOL-2-YL)PHENYL)-3-(3-Oxo-2,3-DIHYDRO-4H-BENZO[B][1,4]THIAZIN-4-YL)PROPANAMIDE] | – | Inactive | –
O=C(CCN1C(=O)CSc2ccccc21)Nc1ccc(-c2ccccc2)cc1 [compound 39, N-([1,1′-BIPHENYL]-4-YL)-3-(3-Oxo-2,3-DIHYDRO-4H-BENZO[B][1,4]THIAZIN-4-YL)PROPANAMIDE] | – | Inactive | –
O=C(CCN1C(=O)COc2ccccc21)Nc1nnc(-c2ccccn2)[nH]1 [compound 43, 3-(3-Oxo-2,3-DIHYDRO-4H-BENZO[B][1,4]OXAZIN-4-YL)-N-(5-(PYRIDIN-2-YL)-4H-1,2,4-TRIAZOL-3-YL)PROPANAMIDE] | – | Inactive | IC50 [2]: > 100000 nM
O=C(CN1C(=O)CCc2cc(F)ccc21)Nc1nnc(-c2ccccn2)[nH]1 [compound 51, 2-(6-FLUORO-2-OXO-3,4-DIHYDROQUINOLIN-1(2H)-YL)-N-(5-(PYRIDIN-2-YL)-4H-1,2,4-TRIAZOL-3-YL)ACETAMIDE] | 1600 | – | –
O=C(CCN1C(=O)CSc2ccccc21)Nc1ccc(-c2ccccn2)cc1 [compound 38, 3-(3-Oxo-2,3-DIHYDRO-4H-BENZO[B][1,4]THIAZIN-4-YL)-N-(4-(PYRIDIN-2-YL)PHENYL)PROPANAMIDE] | – | Inactive | –
O=C(CCN1C(=O)CCc2ccccc21)Nc1nnc(-c2ccccn2)[nH]1 [compound no. 3, 3-(2-Oxo-3,4-DIHYDROQUINOLIN-1(2H)-YL)-N-(5-(PYRIDIN-2-YL)-4H-1,2,4-TRIAZOL-3-YL)PROPANAMIDE] | – | – | IC50 [2]: > 100000 nM
